The nature of experiment [1]: Inhibitory activity of against carboxypeptidase A (CPA).
A short description of experiment [2]: Kinetic constant against carboxypeptidase A (CPA).
Experiment [3] is described as follows: Partition ratio (Kcat/Kinact) was calculated.
Experiment [4] has as its target T1, Carboxypeptidase A1 (Homo sapiens) (UniProt P15085).
T1 sequence (whole entry): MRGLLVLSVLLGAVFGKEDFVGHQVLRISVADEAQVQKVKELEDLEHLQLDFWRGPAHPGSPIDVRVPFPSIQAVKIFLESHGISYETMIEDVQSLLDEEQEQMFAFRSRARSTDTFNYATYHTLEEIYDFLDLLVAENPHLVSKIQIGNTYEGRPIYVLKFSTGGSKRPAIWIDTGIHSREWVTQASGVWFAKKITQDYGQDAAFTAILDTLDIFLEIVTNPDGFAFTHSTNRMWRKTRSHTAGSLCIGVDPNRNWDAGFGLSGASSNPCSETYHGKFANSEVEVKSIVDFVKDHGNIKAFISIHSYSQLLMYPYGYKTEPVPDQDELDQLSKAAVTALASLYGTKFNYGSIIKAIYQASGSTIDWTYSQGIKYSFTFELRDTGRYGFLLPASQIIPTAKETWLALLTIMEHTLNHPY
Put plainly: Inactivation potency of compound against carboxypeptidase A (CPA).

The structures appear in SMILES notation.

This is an account of results in ChEMBL document CHEMBL1130784, “Irreversible inhibition of zinc-containing protease by oxazolidinone derivatives. Novel inactivation chemistry” (Bioorg Med Chem Lett, 1998).

By Ki is commonly meant the dissociation constant of the complex between target and ligand, obtained from inhibition or displacement. A higher Ki goes with lower affinity.

In turn, `O=C1N[C@@H]([C@@H](Cc2ccccc2)C(=O)O)CO1` yielded a Ki in experiment [1] of 1650 µM. The compound also showed a K inact in experiment [2] of 0.115 min⁻¹. In addition, the Ratio in experiment [3] is 94. The K inact/Ki in experiment [4] came to 1.52 M⁻¹ s⁻¹.
For `O=C1N[C@H]([C@H](Cc2ccccc2)C(=O)O)CO1`, in that order: 900 µM, 0.075 min⁻¹, 120 and 1.39 M⁻¹ s⁻¹.
